Patent US20100035755A1, “METHOD OF CONTROLLING WEEDS IN A TURF GRASS BY USING SULFONYLUREA COMPOUNDS” (Moghu Research Center Ltd., priority 2008, published 2010)

How the values were obtained:
Bentgrass = experiment: Turf grass selectivity, greenhouse pot test; type: in vivo, Agrostris palustris
From the text: (§1) Turf mats of Zoysia grass, bentgrass, Kentucky bluegrass, or perennial rye grass known as cool season turfgrass or western grass were purchased and cut into a piece having 10 cm×20 cm size. Then, each piece was transplanted in a rectangular plastic pot (surface area of 300 cm^2) in which sandy loam and mixed top soil (Boo-Nong Top Soil No. 3, for horticultural use) are filled in 1:1 ratio. After the transplantation, the grasses were cut once a week to maintain the blade height at 0.5-1.0 cm and cultivated for one month in a green house of which temperature was kept at 25˜30° C. for daytime and 15˜25° C. for nighttime, respectively. Then, the ‘test chemical’ of the above Examples 1 and 2 or ‘control chemical’ was applied thereto in an amount of 400, 200, 100, 50, 25, 12, 6, 3 g ai/ha. As a “control chemical”, pyrazolsulfuron ethyl wettable agent (manufactured by Dongbu Fine Chemicals; herein after, referred to as ‘control chemical No. 1’) and flazasulfuron (manufactured by Dongbu HiTek; herein after, referred to as ‘control chemical No. 2’), both sulfonylurea herbicides for a turf grass, were used. Application was carried out by using a track sprayer (R&D Sprayer, USA) equipped with Teejet 8002 nozzle (Spraying Systems Co., USA), and the application amount was adjusted to 2,000 L/ha, which is a typical application amount for a golf course in Korea. Application solution was prepared by diluting the “test chemical” or the “control chemical” with tap water. […] The test was repeated three times in a random arrangement and the results are given in average value of each test (see Table 2 below).

Kummerowia striata = experiment: Weed spectrum, greenhouse pot test; type: in vivo; details: two weeks after application
From the text: (§2) To a rectangular plastic pot (surface area of 300 cm^2) in which sandy loam and mixed top soil (Boo-Nong Top Soil No. 3, for horticultural use) are filled in 1:1 ratio, eight different kinds of weed seeds including Poa annua and Digitaria sanguinalis as poaceae weed, Cyperus amuricus as cyperaceae weeds and Trifolium repens, Kummerowia striata, fleabane, Veronica officinalis and Portulaca oleracea as broadleaf weeds were sewn (50 to 100 seeds per each weed). These weeds are representative examples of the weeds which typically thrive in a turf grass field.
(§3) The pot was kept in a greenhouse which was maintained at 25˜30° C. for daytime and 15˜25° C. for nighttime, respectively, and irrigation was carried out regularly. Fourteen days after seeding, when the turf grass and the weeds reached approximately at three-leaf stage, the weed seeds were again sewn in separate two pots or “Test chemical” and “Control chemical” were applied in the same manner as the method described above. In this regard, when plants were cultivated for two weeks and then the chemical application was carried out, it is designated as “post-emergence” treatment. On the other than, when the seeding was carried right before the chemical application, it is designated as “pre-emergence” treatment. Preparation of a chemical solution, application method, etc. are the same as above described for evaluation of turf grass selectivity. Two weeks after the chemical application, efficacy of the chemicals for each type of the weeds was evaluated (visual evaluation) based on 0 to 100 scale (i.e., 0 indicates no efficacy and 100 indicates complete weed control).

Digitaria sanguinalis = experiment: Weed spectrum, greenhouse pot test; type: in vivo; details: two weeks after application
From the text: as §2, §3

Cyperus amuricus = experiment: Weed spectrum, greenhouse pot test; type: in vivo; details: two weeks after application
From the text: as §2, §3

Portulaca oleracea = experiment: Weed spectrum, greenhouse pot test; type: in vivo; details: two weeks after application
From the text: as §2, §3

Veronica officinalis = experiment: Weed spectrum, greenhouse pot test; type: in vivo; details: two weeks after application
From the text: as §2, §3

Trifolium repens = experiment: Weed spectrum, greenhouse pot test; type: in vivo; details: two weeks after application
From the text: as §2, §3

Poa annua = experiment: Weed spectrum, greenhouse pot test; type: in vivo; details: two weeks after application
From the text: as §2, §3

Kentucky bluegrass = experiment: Turf grass selectivity, greenhouse pot test; type: in vivo, Poa pratensis
From the text: as §1

CCOC(=O)c1cnn(C)c1S(=O)(=O)NC(=O)Nc1nc(OC)cc(OC)n1 [Control chemical No. 1, Pyrazosulfuron ethyl, reference compound]
phytotoxicity (visual assessment 0-10) (Bentgrass; 3 g ai/ha, 2 weeks): 0
phytotoxicity (visual assessment 0-10) (Bentgrass; 3 g ai/ha, 4 weeks): 0
phytotoxicity (visual assessment 0-10) (Bentgrass; 6 g ai/ha, 2 weeks): 0
phytotoxicity (visual assessment 0-10) (Bentgrass; 6 g ai/ha, 4 weeks): 0
phytotoxicity (visual assessment 0-10) (Bentgrass; 12 g ai/ha, 2 weeks): 0
phytotoxicity (visual assessment 0-10) (Bentgrass; 12 g ai/ha, 4 weeks): 0
phytotoxicity (visual assessment 0-10) (Bentgrass; 25 g ai/ha, 2 weeks): 0
phytotoxicity (visual assessment 0-10) (Bentgrass; 25 g ai/ha, 4 weeks): 0
phytotoxicity (visual assessment 0-10) (Bentgrass; 50 g ai/ha, 2 weeks): 0
phytotoxicity (visual assessment 0-10) (Bentgrass; 50 g ai/ha, 4 weeks): 0
phytotoxicity (visual assessment 0-10) (Bentgrass; 100 g ai/ha, 2 weeks): 1
phytotoxicity (visual assessment 0-10) (Bentgrass; 100 g ai/ha, 4 weeks): 0
phytotoxicity (visual assessment 0-10) (Bentgrass; 200 g ai/ha, 2 weeks): 2
phytotoxicity (visual assessment 0-10) (Bentgrass; 200 g ai/ha, 4 weeks): 0
phytotoxicity (visual assessment 0-10) (Bentgrass; 400 g ai/ha, 2 weeks): 3
phytotoxicity (visual assessment 0-10) (Bentgrass; 400 g ai/ha, 4 weeks): 1
efficacy (0-100 scale) (Kummerowia striata; Post-emergence, 12 g ai/ha): 0
efficacy (0-100 scale) (Kummerowia striata; Post-emergence, 25 g ai/ha): 30
efficacy (0-100 scale) (Kummerowia striata; Post-emergence, 50 g ai/ha): 40
efficacy (0-100 scale) (Kummerowia striata; Post-emergence, 100 g ai/ha): 50
efficacy (0-100 scale) (Kummerowia striata; Pre-emergence, 12 g ai/ha): 30
efficacy (0-100 scale) (Kummerowia striata; Pre-emergence, 25 g ai/ha): 50
efficacy (0-100 scale) (Kummerowia striata; Pre-emergence, 50 g ai/ha): 50
efficacy (0-100 scale) (Kummerowia striata; Pre-emergence, 100 g ai/ha): 70
efficacy (0-100 scale) (Digitaria sanguinalis; Post-emergence, 12 g ai/ha): 0
efficacy (0-100 scale) (Digitaria sanguinalis; Post-emergence, 25 g ai/ha): 0
efficacy (0-100 scale) (Digitaria sanguinalis; Post-emergence, 50 g ai/ha): 0
efficacy (0-100 scale) (Digitaria sanguinalis; Post-emergence, 100 g ai/ha): 10
efficacy (0-100 scale) (Digitaria sanguinalis; Pre-emergence, 12 g ai/ha): 0
efficacy (0-100 scale) (Digitaria sanguinalis; Pre-emergence, 25 g ai/ha): 10
efficacy (0-100 scale) (Digitaria sanguinalis; Pre-emergence, 50 g ai/ha): 30
efficacy (0-100 scale) (Digitaria sanguinalis; Pre-emergence, 100 g ai/ha): 50
efficacy (0-100 scale) (Cyperus amuricus; Post-emergence, 12 g ai/ha): 50
efficacy (0-100 scale) (Cyperus amuricus; Post-emergence, 25 g ai/ha): 70
efficacy (0-100 scale) (Cyperus amuricus; Post-emergence, 50 g ai/ha): 80
efficacy (0-100 scale) (Cyperus amuricus; Post-emergence, 100 g ai/ha): 100
efficacy (0-100 scale) (Cyperus amuricus; Pre-emergence, 12 g ai/ha): 70
efficacy (0-100 scale) (Cyperus amuricus; Pre-emergence, 25 g ai/ha): 80
efficacy (0-100 scale) (Cyperus amuricus; Pre-emergence, 50 g ai/ha): 100
efficacy (0-100 scale) (Cyperus amuricus; Pre-emergence, 100 g ai/ha): 100
efficacy (0-100 scale) (Portulaca oleracea; Post-emergence, 12 g ai/ha): 20
efficacy (0-100 scale) (Portulaca oleracea; Post-emergence, 25 g ai/ha): 40
efficacy (0-100 scale) (Portulaca oleracea; Post-emergence, 50 g ai/ha): 60
efficacy (0-100 scale) (Portulaca oleracea; Post-emergence, 100 g ai/ha): 80
efficacy (0-100 scale) (Portulaca oleracea; Pre-emergence, 12 g ai/ha): 20
efficacy (0-100 scale) (Portulaca oleracea; Pre-emergence, 25 g ai/ha): 30
efficacy (0-100 scale) (Portulaca oleracea; Pre-emergence, 50 g ai/ha): 70
efficacy (0-100 scale) (Portulaca oleracea; Pre-emergence, 100 g ai/ha): 100
efficacy (0-100 scale) (Veronica officinalis; Post-emergence, 12 g ai/ha): 10
efficacy (0-100 scale) (Veronica officinalis; Post-emergence, 25 g ai/ha): 20
efficacy (0-100 scale) (Veronica officinalis; Post-emergence, 50 g ai/ha): 30
efficacy (0-100 scale) (Veronica officinalis; Post-emergence, 100 g ai/ha): 30
efficacy (0-100 scale) (Veronica officinalis; Pre-emergence, 12 g ai/ha): 0
efficacy (0-100 scale) (Veronica officinalis; Pre-emergence, 25 g ai/ha): 20
efficacy (0-100 scale) (Veronica officinalis; Pre-emergence, 50 g ai/ha): 30
efficacy (0-100 scale) (Veronica officinalis; Pre-emergence, 100 g ai/ha): 40
efficacy (0-100 scale) (Trifolium repens; Post-emergence, 12 g ai/ha): 20
efficacy (0-100 scale) (Trifolium repens; Post-emergence, 25 g ai/ha): 60
efficacy (0-100 scale) (Trifolium repens; Post-emergence, 50 g ai/ha): 70
efficacy (0-100 scale) (Trifolium repens; Post-emergence, 100 g ai/ha): 80
efficacy (0-100 scale) (Trifolium repens; Pre-emergence, 12 g ai/ha): 40
efficacy (0-100 scale) (Trifolium repens; Pre-emergence, 25 g ai/ha): 60
efficacy (0-100 scale) (Trifolium repens; Pre-emergence, 50 g ai/ha): 70
efficacy (0-100 scale) (Trifolium repens; Pre-emergence, 100 g ai/ha): 70
efficacy (0-100 scale) (Poa annua; Post-emergence, 12 g ai/ha): 0
efficacy (0-100 scale) (Poa annua; Post-emergence, 25 g ai/ha): 0
efficacy (0-100 scale) (Poa annua; Post-emergence, 50 g ai/ha): 0
efficacy (0-100 scale) (Poa annua; Post-emergence, 100 g ai/ha): 10
efficacy (0-100 scale) (Poa annua; Pre-emergence, 12 g ai/ha): 0
efficacy (0-100 scale) (Poa annua; Pre-emergence, 25 g ai/ha): 10
efficacy (0-100 scale) (Poa annua; Pre-emergence, 50 g ai/ha): 20
efficacy (0-100 scale) (Poa annua; Pre-emergence, 100 g ai/ha): 20
phytotoxicity (visual assessment 0-10) (Kentucky bluegrass; 3 g ai/ha, 2 weeks): 0
phytotoxicity (visual assessment 0-10) (Kentucky bluegrass; 3 g ai/ha, 4 weeks): 0
phytotoxicity (visual assessment 0-10) (Kentucky bluegrass; 6 g ai/ha, 2 weeks): 0
phytotoxicity (visual assessment 0-10) (Kentucky bluegrass; 6 g ai/ha, 4 weeks): 0
phytotoxicity (visual assessment 0-10) (Kentucky bluegrass; 12 g ai/ha, 2 weeks): 0
phytotoxicity (visual assessment 0-10) (Kentucky bluegrass; 12 g ai/ha, 4 weeks): 0
phytotoxicity (visual assessment 0-10) (Kentucky bluegrass; 25 g ai/ha, 2 weeks): 0
phytotoxicity (visual assessment 0-10) (Kentucky bluegrass; 25 g ai/ha, 4 weeks): 0
phytotoxicity (visual assessment 0-10) (Kentucky bluegrass; 50 g ai/ha, 2 weeks): 0
phytotoxicity (visual assessment 0-10) (Kentucky bluegrass; 50 g ai/ha, 4 weeks): 0
phytotoxicity (visual assessment 0-10) (Kentucky bluegrass; 100 g ai/ha, 2 weeks): 0
phytotoxicity (visual assessment 0-10) (Kentucky bluegrass; 100 g ai/ha, 4 weeks): 0
phytotoxicity (visual assessment 0-10) (Kentucky bluegrass; 200 g ai/ha, 2 weeks): 1
phytotoxicity (visual assessment 0-10) (Kentucky bluegrass; 200 g ai/ha, 4 weeks): 0
phytotoxicity (visual assessment 0-10) (Kentucky bluegrass; 400 g ai/ha, 2 weeks): 2
phytotoxicity (visual assessment 0-10) (Kentucky bluegrass; 400 g ai/ha, 4 weeks): 1
